Test results as given in patent publication US7563862B2, “Neural regeneration peptides and methods for their use in treatment of brain damage” (Neuren Pharmaceuticals Limited, priority 2001, dated 2009).
Ends that are not written are not given here.

Experiments:
[1] = tested on: human olfactory ensheating glial (OEG) cells; assay: proliferation of olfactory ensheating glial (OEG) cells; assay type: cell-based; conditions: over 72 hours
Description: To determine whether NRPs might be useful for remyelinating neural tissues, we carried out studies using human olfactory ensheating glial (OEG) cells. OEG cells are being evaluated as a source population of cells for repopulating damaged neural tissue, such as that of the spinal cord. OEG cells were obtained from scrapings of human nasal mucosa using methods that are known in the art. Cells were grown in medium under control conditions and in the presence of NRP-7 SW (SEQ ID NO:24).

thalamocortical OTCs = assay: thalamocortical OTC neuronal migration assay (cell bridge / cell chain); assay type: cell-based, rat
Description: We developed a new assay system for identifying NRP having migration-inducing activity. The assay system was used following guidelines approved by the Gesundheitsamt Magdeburg animal ethics committee. Newborn Long Evans rats (P0) were killed by decapitation, and neural tissues were used for preparation of organotypic cultures (OTCs). Neocortical tissue (areas 17-18 according to the Paxinos rat atlas of the developing rat brain) and thalamic tissue from the dorsal thalamus (visual areas) were extracted. These areas represent the visual axis. The dorsal thalamus was accessed by an intersection cut to remove the hypothalamus. Subsequently, the thalamus was sliced frontally using a McIllwain tissue chopper into 350 μm thick slices. Using a dissecting microscope, the habenula nucleus served as a landmark to select only dorsal thalamic areas. Cortical tissues were cut using two sagittal and two frontal intersections in order to obtain areas 17-18 of the occipital cortex. Before the last frontal cut was made, the hippocampal formation was removed. The cortical tissues were sliced by a Mclllwain tissue chopper into 350 μm thick frontal slices and was incubated in Gey's balanced salt solution (GBSS) plus 0.65% D(+)glucose, and tissuesswere kept at 4° C. for at least 30-40 minutes for recovery.
For each assay, two slices of tissue, one cortical and one thalamic, were arranged at a distance at least about 3 mm from each other on a glass substrate (e.g., a cover slip; FIG. 1). The thalamus was oriented with the habenula nucleus facing cortical layer VI. The tissues were adhered to the substrate using a plasma clot (10 μl chicken plasma (Cocalico) coagulated with 10 μl thrombin (25 U/ml, ICN) and the tissues were subsequently cultured (cultivated) at 36° C. in a roller tube incubator as organotypic cultures using 2/4 BME/¼ HBSS (Invitrogen) medium supplemented with 25% heat-inactivated horse serum (Gaehwiler, 1981) plus 2 mM L0glutamine and 0.65% D-glucose. A 712.5 μl sample of prepared medium was supplemented with 37.5 μl of purified rat NRP-1 (SEQ ID NO:2) (in concentrated or diluted form) in 0.01 M sodium phosphate (pH 7.3) or phosphate alone (control). For the experiments using 600 ng/ml NRP-1, the peptide was concentrated 4 times by speed vacuum centrifugation. The medium containing NRP was changed every three days. After each study was completed, the tissues were fixed using conventional fixatives, and migrating neurons were analysed by immunocytochemistry.
Thus, any observations of neurite outgrowths or interconnecting cell bridges are due to the influence of factors added to the culture medium. […] Thus, in certain embodiments of this invention, NRPs can be identified and/or quantified. In other embodiments, NRPs amounts can be standardized, forming a basis for therapeutic application of NRPs to treat neurological diseases or conditions.
Migration of the thalamic neurons was determined after 3 days of co-culture in the presence of NRP. The migration distances were measured by a micrometer scaled-microscopic ocular, beginning from the tissue margin of the migrating cell stream. As a threshold value for the formation of a migrating cell chain was considered to be a number of at least 5 interconnected neurons. For the determination of the dose-response curve, the longest distance of a migrated neuron from the thalamic tissue margin was measured. Results are given as mean values+/− standard deviation.

Substance	rate of growth of OEG cells [1]	concentration at which neuronal migration was clearly detected (thalamocortical OTCs; 2 ng/ml = 1 nM) [ng/mL]	length of cell bridge between the thalamic and cortical tissues (thalamocortical OTCs; 6 ng/ml (3 nM)) [μm]	concentrations at which neuronal migration was not increased (thalamocortical OTCs; 10-30 nM) [ng/mL]	interconnecting neurite network formed, time after cultivation start (thalamocortical OTCs; NRP-1 supplemented co-cultures) [h]	concentration producing the longest cell chain (thalamocortical OTCs; dose-response 2-600 ng/ml, 6 ng/ml = 3 nM) [ng/mL]	concentration producing the greatest effect (migrating cell chain) (thalamocortical OTCs; thalamocortical OTCs) [nM]
SEPEARRAPGRKGGVVCASLAADW-NH2 [NRP-7 segment SW, 24-mer form of mouse NRP-7]	about 50%	–	–	–	–	–	–
NRP-1: rat 16 amino acid neural regeneration peptide purified from hippocampal OTC supernatant, Tyr Asp Pro Glu ... Cys His-NH2 (YDPEAASAPGSGNPCH-NH2)	–	2	2500±240	20 to 60	≤ 36	6	3
